# Active and inactive are the calls of the source. The rule behind the calls is not given here.
# What was measured:
# [1] = tested on: Staphylococcus epidermidis; assay: Antibacterial activity against oxacillin-sensitive Staphylococcus epidermidis ATCC 12228 at 0.25 ug/ml after 18 hrs; type: functional, organism-based
# [2] = tested on: Staphylococcus epidermidis; assay: Antibacterial activity against oxacillin-sensitive Staphylococcus epidermidis ATCC 12228 assessed as reduction in number of viable biofilm associated bacteria in presence of dispersin B; type: functional, organism-based
structure (smiles),measurement,setting,value
Cn1nnnc1SCC1=C(C(=O)O)N2C(=O)[C@@H](NC(=O)[C@H](OC=O)c3ccccc3)[C@H]2SC1,Activity,[1],Active
same,Activity,[2],Active

# From ChEMBL document CHEMBL1155171, “Synergistic activity of dispersin B and cefamandole nafate in inhibition of staphylococcal biofilm growth on polyurethanes” (Antimicrob Agents Chemother, 2007)
